Test results reported in ChEMBL document CHEMBL5226338, “Molecular hybrids: A five-year survey on structures of multiple targeted hybrids of protein kinase inhibitors for cancer therapy” (Eur J Med Chem, 2021).
One block for each molecule: values may come before it.

Assays:
[1] = target: MAP kinase-interacting serine/threonine-protein kinase 1 (Homo sapiens) (UniProt Q9BUB5); assay: Inhibition of MNK1 (unknown origin) at 1 uM incubated for 60 mins by HTRF assay relative to control
[2] = target: MAP kinase-interacting serine/threonine-protein kinase 2 (Homo sapiens) (UniProt Q9HBH9); assay: Inhibition of MNK2 (unknown origin) at 1 uM incubated for 60 mins by HTRF assay relative to control
Histone deacetylase = assay: Inhibition of HDAC in human HeLa cell nuclear extract using Boc-Lys (acetyl)-AMC as substrate preincubated for 15 mins followed by substrate addition and measured after 60 mins by fluorescence based analysis; type: subcellular, Nucleus
[3] = target: DNA topoisomerase 2-alpha (Homo sapiens, UniProt P11388); assay: Inhibition of human topoisomerase 2 alpha assessed as relaxation of supercoiled plasmid pBR322 DNA incubated for 30 mins by ethidium bromide staining based agarose gel electrophoresis
[4] = Inhibition of tyrosine kinase in human CAPAN-1 cells; type: cell-based
[5] = Inhibition of tyrosine kinase in human PANC-1 cells; type: cell-based
T-24 = assay: Antiproliferative activity against human T24 cells assessed as inhibition of cell growth incubated for 24 to 72 hrs by MTT assay; type: functional, cell-based
PANC-1 = assay: Antiproliferative activity against human PANC-1 cells assessed as inhibition of cell growth incubated for 24 to 72 hrs by MTT assay; type: functional, cell-based
BGC-823 = assay: Antiproliferative activity against human BGC-823 cells assessed as inhibition of cell growth incubated for 24 to 72 hrs by MTT assay; type: functional, cell-based
HGC-27 = assay: Antiproliferative activity against human HGC-27 cells assessed as inhibition of cell growth incubated for 24 to 72 hrs by MTT assay; type: functional, cell-based
DU-145 = assay: Antiproliferative activity against human DU-145 cells assessed as inhibition of cell growth incubated for 24 to 72 hrs by MTT assay; type: functional, cell-based
CAPAN-1 = assay: Antiproliferative activity against human CAPAN-1 cells assessed as inhibition of cell growth incubated for 24 to 72 hrs by MTT assay; type: functional, cell-based
[6] = target: T1, Epidermal growth factor receptor (Homo sapiens, UniProt P00533); assay: Inhibition of EGFR (unknown origin)
[7] = target: T1, Epidermal growth factor receptor; assay: Inhibition of EGFR (unknown origin) phosphorylation by ELISA
Tubulin beta = assay: Inhibition of beta-tubulin polymerization (unknown origin) measured every 3 secs for 1 hr by spectrofluorometer; type: protein assay, Homo sapiens
[8] = Cytotoxicity against human U87 cells; type: functional, cell-based, U-87MG ATCC; settings: U-87 MG
Bcr/Abl fusion protein = Bcr/Abl fusion protein (Homo sapiens, UniProt P00519); assay: Inhibition of BCR-Abl (unknown origin) incubated for 1 hr by ADP-glo assay; type: protein assay
Histone deacetylase 1 [9] = target: T2, Histone deacetylase 1 (Homo sapiens, UniProt Q13547); assay: Inhibition of full length human recombinant HDAC1 using AcLys-Tyr-Lys(e-acetyl)-AMC as substrate incubated for 24 hrs
[10] = target: T3, Vascular endothelial growth factor receptor 2 (Homo sapiens, UniProt P35968); assay: Inhibition of human VEGFR2 using TMB as substrate by ELISA
[11] = target: Tubulin beta (Homo sapiens) (UniProt P68371+Q9H4B7+Q13509+P04350+Q3ZCM7+P07437+Q13885+Q9BVA1+Q9BUF5+A6NNZ2); assay: Inhibition of beta-tubulin polymerization in human HepG2 cells using TMB substrate by spectrophotometry analysis relative to control; type: cell-based; settings: concentration not given here
Histone deacetylase 1 [12] = target: T2, Histone deacetylase 1; assay: Inhibition of HDAC1 (unknown origin)
[13] = target: T4, Protein deacetylase HDAC6 (Homo sapiens, UniProt Q9UBN7); assay: Inhibition of HDAC6 (unknown origin)
T4 sequence (Q9UBN7 whole entry): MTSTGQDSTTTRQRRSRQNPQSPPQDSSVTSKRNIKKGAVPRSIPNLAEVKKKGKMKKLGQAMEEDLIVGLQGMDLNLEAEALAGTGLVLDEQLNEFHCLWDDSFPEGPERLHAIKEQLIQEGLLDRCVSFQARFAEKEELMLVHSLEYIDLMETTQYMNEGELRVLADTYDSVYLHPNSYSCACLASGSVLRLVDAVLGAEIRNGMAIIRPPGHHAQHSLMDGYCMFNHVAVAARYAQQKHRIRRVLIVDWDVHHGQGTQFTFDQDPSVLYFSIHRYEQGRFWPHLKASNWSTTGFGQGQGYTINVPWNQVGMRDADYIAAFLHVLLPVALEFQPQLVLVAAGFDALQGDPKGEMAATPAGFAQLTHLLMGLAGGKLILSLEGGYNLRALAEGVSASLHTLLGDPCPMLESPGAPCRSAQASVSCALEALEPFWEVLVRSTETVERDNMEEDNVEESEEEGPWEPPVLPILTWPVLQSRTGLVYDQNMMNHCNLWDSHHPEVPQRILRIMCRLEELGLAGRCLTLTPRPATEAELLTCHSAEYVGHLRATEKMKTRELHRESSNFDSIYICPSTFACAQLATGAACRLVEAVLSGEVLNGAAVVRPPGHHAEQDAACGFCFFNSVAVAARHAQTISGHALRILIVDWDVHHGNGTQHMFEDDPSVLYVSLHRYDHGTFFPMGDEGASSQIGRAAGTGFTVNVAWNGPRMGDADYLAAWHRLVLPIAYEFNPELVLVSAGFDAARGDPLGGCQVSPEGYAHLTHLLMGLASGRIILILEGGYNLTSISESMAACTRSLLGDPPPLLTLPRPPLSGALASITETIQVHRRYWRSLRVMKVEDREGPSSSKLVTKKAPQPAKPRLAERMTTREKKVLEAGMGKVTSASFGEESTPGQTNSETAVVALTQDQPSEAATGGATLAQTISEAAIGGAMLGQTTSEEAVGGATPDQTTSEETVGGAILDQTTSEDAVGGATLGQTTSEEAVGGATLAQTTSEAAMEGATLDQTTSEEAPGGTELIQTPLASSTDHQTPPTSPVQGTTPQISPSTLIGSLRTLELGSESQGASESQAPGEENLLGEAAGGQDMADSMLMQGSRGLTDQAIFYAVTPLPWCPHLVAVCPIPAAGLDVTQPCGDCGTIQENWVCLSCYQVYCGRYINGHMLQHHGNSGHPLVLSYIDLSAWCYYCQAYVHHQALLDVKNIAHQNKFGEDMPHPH

[14] = target: Tyrosine-protein kinase JAK2 (Homo sapiens, UniProt O60674); assay: Inhibition of JAK2 (unknown origin)
SK-MEL-1 = assay: Antiproliferative activity against human SK-MEL-1 cells assessed as inhibition of cell growth incubated for 72 hrs by MTT assay; type: functional, cell-based; settings: SK-MEL-1, 72 h
U-937 = assay: Antiproliferative activity against human U-937 cells assessed as inhibition of cell growth incubated for 72 hrs by MTT assay; type: functional, cell-based; settings: U-937, 72 h
Cyclin-dependent kinase = assay: Inhibition of CDK (unknown origin); type: protein assay, Homo sapiens
Tubulin = Tubulin (Bos taurus, UniProt Q6B856+Q862L2+Q862F3); assay: Inhibition of bovine brain tubulin polymerization incubated for 20 mins by spectrophotometric method; type: tissue-based
DNA topoisomerase 2-beta = DNA topoisomerase 2-beta (Homo sapiens, UniProt Q02880); assay: Inhibition of human DNA topoisomerase 2-beta
[15] = target: T3, Vascular endothelial growth factor receptor 2; assay: Inhibition of VEGFR2 (unknown origin) by ELISA
[16] = target: T1, Epidermal growth factor receptor; assay: Inhibition of EGFR (unknown origin) by ELISA

T1 sequence (P00533 whole entry): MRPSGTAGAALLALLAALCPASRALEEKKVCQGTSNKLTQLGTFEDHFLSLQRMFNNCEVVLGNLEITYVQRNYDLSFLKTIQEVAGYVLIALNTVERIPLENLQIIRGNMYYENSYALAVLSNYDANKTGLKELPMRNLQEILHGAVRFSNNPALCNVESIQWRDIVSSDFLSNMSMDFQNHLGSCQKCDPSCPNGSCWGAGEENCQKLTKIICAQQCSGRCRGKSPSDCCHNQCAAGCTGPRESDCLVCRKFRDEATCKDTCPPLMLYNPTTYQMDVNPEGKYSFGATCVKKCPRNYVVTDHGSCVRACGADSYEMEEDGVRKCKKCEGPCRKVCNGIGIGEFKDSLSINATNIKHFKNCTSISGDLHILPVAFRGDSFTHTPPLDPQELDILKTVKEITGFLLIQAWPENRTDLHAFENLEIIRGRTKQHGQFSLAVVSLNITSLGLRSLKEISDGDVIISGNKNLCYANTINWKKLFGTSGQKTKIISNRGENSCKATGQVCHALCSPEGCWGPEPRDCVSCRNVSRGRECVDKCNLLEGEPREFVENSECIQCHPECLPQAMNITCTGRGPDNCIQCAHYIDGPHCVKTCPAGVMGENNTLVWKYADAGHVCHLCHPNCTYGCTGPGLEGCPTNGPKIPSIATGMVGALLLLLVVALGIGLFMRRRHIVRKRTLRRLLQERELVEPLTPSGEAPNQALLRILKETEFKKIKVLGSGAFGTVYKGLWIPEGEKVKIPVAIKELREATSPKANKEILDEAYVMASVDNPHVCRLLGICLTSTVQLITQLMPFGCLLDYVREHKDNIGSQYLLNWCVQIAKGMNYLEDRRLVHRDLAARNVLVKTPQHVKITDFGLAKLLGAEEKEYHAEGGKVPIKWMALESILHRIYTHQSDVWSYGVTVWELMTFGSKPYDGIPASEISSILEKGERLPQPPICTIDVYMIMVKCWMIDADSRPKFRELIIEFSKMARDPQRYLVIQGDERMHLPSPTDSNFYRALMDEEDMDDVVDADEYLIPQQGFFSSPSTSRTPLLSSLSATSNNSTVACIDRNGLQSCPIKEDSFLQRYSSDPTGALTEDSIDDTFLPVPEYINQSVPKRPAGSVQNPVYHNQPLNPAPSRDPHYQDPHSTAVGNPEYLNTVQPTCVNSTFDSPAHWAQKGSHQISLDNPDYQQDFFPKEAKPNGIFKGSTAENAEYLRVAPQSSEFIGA
T3 sequence (P35968 whole entry): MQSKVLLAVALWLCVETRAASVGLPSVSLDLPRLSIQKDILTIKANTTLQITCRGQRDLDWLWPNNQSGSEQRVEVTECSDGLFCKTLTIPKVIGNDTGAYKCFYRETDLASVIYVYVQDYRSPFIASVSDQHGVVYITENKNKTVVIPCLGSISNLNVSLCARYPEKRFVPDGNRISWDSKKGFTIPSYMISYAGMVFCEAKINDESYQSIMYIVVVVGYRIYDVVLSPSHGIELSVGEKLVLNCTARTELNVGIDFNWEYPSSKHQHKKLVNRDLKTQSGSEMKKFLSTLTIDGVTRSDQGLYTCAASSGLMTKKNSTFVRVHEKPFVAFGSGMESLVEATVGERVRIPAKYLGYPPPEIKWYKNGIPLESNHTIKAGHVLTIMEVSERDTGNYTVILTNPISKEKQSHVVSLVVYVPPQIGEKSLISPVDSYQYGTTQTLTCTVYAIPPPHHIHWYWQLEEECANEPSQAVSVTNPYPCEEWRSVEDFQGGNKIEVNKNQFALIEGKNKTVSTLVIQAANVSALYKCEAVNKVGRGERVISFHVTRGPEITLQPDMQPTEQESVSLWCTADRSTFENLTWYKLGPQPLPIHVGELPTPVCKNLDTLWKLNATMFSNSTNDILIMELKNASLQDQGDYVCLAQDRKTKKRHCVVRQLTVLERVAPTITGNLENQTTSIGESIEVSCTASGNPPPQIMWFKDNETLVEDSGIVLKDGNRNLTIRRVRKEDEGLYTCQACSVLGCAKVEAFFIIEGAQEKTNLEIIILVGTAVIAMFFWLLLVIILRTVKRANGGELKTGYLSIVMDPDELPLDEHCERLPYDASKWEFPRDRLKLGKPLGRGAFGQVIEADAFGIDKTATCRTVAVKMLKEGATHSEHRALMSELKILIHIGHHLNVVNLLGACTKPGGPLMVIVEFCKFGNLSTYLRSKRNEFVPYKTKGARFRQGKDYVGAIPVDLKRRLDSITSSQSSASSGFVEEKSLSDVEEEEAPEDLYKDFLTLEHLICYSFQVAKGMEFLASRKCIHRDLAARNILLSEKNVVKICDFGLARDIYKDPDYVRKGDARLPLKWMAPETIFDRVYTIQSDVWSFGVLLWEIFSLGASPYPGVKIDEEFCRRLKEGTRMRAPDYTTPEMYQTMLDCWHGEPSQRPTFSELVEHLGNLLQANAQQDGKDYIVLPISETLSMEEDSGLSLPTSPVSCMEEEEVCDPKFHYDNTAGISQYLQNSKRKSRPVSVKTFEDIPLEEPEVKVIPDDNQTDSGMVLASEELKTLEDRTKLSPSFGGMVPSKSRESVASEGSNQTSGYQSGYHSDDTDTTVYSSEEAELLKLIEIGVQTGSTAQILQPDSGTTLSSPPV
Tyrosine-protein kinase JAK2, sequence (O60674 whole entry): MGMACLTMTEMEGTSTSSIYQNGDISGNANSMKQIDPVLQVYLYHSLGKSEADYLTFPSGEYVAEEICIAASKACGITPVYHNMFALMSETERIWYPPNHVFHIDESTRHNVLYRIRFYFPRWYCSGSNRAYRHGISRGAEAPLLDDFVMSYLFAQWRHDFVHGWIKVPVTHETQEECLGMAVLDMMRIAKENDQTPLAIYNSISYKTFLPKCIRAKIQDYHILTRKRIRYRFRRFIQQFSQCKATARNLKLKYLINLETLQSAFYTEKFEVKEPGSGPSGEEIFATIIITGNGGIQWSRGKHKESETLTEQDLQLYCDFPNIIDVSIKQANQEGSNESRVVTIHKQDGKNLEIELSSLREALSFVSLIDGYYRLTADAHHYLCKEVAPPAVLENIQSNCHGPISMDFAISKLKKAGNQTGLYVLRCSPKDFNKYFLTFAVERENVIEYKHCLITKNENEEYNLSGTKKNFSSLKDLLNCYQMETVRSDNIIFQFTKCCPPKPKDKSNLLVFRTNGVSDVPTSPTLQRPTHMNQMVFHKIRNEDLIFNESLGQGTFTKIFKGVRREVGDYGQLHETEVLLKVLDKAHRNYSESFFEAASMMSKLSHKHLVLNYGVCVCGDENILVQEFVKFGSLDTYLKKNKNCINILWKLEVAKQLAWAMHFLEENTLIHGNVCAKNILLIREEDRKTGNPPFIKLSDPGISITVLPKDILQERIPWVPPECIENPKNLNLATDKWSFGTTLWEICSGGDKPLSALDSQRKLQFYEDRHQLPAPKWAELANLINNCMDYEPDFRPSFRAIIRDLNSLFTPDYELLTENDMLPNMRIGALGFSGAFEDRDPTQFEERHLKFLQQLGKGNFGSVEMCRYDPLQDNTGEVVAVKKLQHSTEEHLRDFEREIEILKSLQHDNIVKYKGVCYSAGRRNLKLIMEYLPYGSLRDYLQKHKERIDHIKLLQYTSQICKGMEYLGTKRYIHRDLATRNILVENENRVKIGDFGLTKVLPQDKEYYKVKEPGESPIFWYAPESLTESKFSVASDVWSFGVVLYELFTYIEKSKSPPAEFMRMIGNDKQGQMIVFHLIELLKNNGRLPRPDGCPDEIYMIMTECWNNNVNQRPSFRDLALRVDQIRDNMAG
T2 sequence (Q13547 whole entry): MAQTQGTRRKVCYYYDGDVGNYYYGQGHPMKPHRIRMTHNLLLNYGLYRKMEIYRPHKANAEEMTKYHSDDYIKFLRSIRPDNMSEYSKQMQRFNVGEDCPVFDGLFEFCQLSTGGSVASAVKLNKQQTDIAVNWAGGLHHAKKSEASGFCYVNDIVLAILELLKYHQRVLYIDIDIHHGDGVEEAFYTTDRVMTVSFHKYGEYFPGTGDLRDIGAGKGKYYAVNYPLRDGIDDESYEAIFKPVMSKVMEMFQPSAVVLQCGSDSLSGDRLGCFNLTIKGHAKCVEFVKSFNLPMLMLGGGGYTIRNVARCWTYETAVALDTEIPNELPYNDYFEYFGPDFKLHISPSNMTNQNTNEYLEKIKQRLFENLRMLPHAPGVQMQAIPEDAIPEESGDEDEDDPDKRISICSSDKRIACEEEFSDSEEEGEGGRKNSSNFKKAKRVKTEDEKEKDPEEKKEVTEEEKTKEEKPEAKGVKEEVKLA
MAP kinase-interacting serine/threonine-protein kinase 1 (Homo sapiens), sequence (Q9BUB5 whole entry, looked up): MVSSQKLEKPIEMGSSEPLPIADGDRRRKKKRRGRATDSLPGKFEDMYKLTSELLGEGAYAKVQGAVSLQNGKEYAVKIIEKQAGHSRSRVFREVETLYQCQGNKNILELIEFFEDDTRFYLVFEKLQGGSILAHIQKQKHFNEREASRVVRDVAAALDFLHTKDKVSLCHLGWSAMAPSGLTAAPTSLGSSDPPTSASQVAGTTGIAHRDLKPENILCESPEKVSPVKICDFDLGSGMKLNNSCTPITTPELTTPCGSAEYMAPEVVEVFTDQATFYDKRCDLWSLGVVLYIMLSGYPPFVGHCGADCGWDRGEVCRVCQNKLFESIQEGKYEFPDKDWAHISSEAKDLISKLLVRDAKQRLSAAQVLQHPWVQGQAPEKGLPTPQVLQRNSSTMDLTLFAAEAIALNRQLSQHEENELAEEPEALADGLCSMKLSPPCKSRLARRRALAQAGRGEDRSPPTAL

inhibition [1]: 54%
inhibition [2]: 70%
IC50 (Histone deacetylase): 780 nM
SMILES: O=C(CCCCCCNc1ccc2ncnc(Nc3ccc(F)cc3)c2n1)NO

IC50 [3]: 1600 nM
IC50 [4]: 640 nM
IC50 [5]: 3100 nM
IC50 (PANC-1): 312 nM
IC50 (BGC-823): 312 nM
IC50 (DU-145): 312 nM
SMILES: CN1CCN(c2cc3c(cc2F)C(=O)C(/C=C2\CN(C4CC4)c4cc(N5CCNCC5)c(F)cc4C2=O)CN3C2CC2)CC1 (stereo not given)
IC50 (T-24): 312 nM
IC50 (HGC-27): 312 nM
IC50 (CAPAN-1): 312 nM

IC50 [6]: 10 nM
SMILES: CC(=O)O[C@H]1CC[C@]2(C)[C@H]3CC=C4[C@@H]5CC(C)(C)CC[C@]5(C(=O)OCCCC[N+](=O)[O-])CC[C@@]4(C)[C@]3(C)CC[C@H]2C1(C)CO (stereo not given in full)

IC50 [7]: 90 nM
IC50 (Tubulin beta): 5510 nM
SMILES: O=C(/C=C/c1ccc(F)cc1)c1cc(Br)cc2cc(-c3ccccc3)oc12

SMILES: C=C[C@]1(C)CC[C@@H](C(=C)COC(=O)CNC(=O)CCC(=O)OCCCCOc2no[n+]([O-])c2S(=O)(=O)c2ccccc2)C[C@H]1C(=C)C
IC50 [8]: 2 nM

IC50 (Bcr/Abl fusion protein): 21.2 nM
IC50 (Histone deacetylase 1 [9]): 150 nM
SMILES: CCN1CCN(Cc2cc(Nc3ncc(C(=O)Nc4ccccc4N)s3)nc(C)n2)CC1

IC50 [10]: 590 nM
inhibition [11]: 73%
SMILES: COc1ccc(NC(=O)c2c(Nc3ccccc3)sc(C#N)c2NC(=O)CNc2ccc(Cl)cc2)cc1

IC50 (Histone deacetylase 1 [12]): 306 nM
IC50 [13]: 20 nM
IC50 [14]: 2.6 nM
SMILES: CC(=O)Nc1ccc(-c2ccnc(NCc3ccc(OCCCCCC(=O)NO)cc3)n2)cc1

IC50 (SK-MEL-1): 8000 nM
IC50 (U-937): 5700 nM
IC50 (Cyclin-dependent kinase): > 10000 nM
IC50 (Tubulin): > 20000 nM
SMILES: COc1ccc(CCNc2nc(N)c(C(=O)c3cc(OC)c(OC)c(OC)c3)s2)cc1

IC50 [10]: 1290 nM
inhibition [11]: 86%
SMILES: COc1ccc(NC(=O)c2c(Nc3ccccc3)sc(C(=O)N/N=C/c3ccc(O)c(O)c3)c2NC(C)=O)cc1

IC50 [13]: 46 nM
IC50 [14]: 8 nM
SMILES: CS(=O)(=O)Nc1ccc(-c2ccnc(Nc3ccc(N4CCC(CCc5ccc(/C=C/CC(=O)NO)cc5)CC4)cc3)n2)cc1

IC50 (DNA topoisomerase 2-beta): 25.8 nM
IC50 [15]: 126 nM
IC50 [16]: 38.8 nM
SMILES: Cc1ccc2c(=O)n(Cc3ccccc3)c(SCc3cn(-c4ccc(C(=O)O)cc4)nn3)nc2c1

IC50 [6]: 3000 nM
SMILES: CSc1nn(-c2ccc(Br)cc2)c2nc(C)nc(Nc3ccc(OCCCC[N+](=O)[O-])cc3)c12
